Results reported in US9371320B2, “Heterocyclic compound” (TAKEDA PHARMACEUTICAL COMPANY LIMITED, priority 2012, dated 2016).

What was measured:
Tyk2 = target: T1, Tyk2 (Homo sapiens, UniProt P29597); assay: Tyk2 enzyme inhibition test (LANCE method); type: biochemical; settings: test compound 1 μM; for inhibition at 1 µM: read-out: Inhibitory rate (%) Tyk2 1 μM
T1 construct: purchased Invitrogen
How it was run: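 Recombinant Tyk2 (375 ng/mL stock) with ULight-JAK1 peptide (300 nM stock) and ATP (30 μM stock) in HEPES pH 7.5/MgCl2/EGTA/DTT buffer, 1 h at room temperature. Stopped with EDTA plus Eu-anti-phosphotyrosine antibody; TR-FRET read at 665 nm after 1 h. No-enzyme wells define 100% inhibition.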

JAK1 = target: T2, JAK1 (Homo sapiens, UniProt P23458); assay: JAK1 enzyme inhibition test (LANCE method); type: biochemical; settings: for inhibition at 1 µM: test compound 1 μM, read-out: Inhibitory rate (%) JAK1 1 μM; for inhibition at 10 µM / Inhibitory rate (%) JAK1 10 μM: test compound 10 μM (Ex. 182-220), beside Tyk2 1 μM; for inhibition at 10 µM: read-out: Inhibitory rate (%) JAK1 10 μM
T2 construct: purchased Invitrogen
T2 sequence (P23458 whole entry): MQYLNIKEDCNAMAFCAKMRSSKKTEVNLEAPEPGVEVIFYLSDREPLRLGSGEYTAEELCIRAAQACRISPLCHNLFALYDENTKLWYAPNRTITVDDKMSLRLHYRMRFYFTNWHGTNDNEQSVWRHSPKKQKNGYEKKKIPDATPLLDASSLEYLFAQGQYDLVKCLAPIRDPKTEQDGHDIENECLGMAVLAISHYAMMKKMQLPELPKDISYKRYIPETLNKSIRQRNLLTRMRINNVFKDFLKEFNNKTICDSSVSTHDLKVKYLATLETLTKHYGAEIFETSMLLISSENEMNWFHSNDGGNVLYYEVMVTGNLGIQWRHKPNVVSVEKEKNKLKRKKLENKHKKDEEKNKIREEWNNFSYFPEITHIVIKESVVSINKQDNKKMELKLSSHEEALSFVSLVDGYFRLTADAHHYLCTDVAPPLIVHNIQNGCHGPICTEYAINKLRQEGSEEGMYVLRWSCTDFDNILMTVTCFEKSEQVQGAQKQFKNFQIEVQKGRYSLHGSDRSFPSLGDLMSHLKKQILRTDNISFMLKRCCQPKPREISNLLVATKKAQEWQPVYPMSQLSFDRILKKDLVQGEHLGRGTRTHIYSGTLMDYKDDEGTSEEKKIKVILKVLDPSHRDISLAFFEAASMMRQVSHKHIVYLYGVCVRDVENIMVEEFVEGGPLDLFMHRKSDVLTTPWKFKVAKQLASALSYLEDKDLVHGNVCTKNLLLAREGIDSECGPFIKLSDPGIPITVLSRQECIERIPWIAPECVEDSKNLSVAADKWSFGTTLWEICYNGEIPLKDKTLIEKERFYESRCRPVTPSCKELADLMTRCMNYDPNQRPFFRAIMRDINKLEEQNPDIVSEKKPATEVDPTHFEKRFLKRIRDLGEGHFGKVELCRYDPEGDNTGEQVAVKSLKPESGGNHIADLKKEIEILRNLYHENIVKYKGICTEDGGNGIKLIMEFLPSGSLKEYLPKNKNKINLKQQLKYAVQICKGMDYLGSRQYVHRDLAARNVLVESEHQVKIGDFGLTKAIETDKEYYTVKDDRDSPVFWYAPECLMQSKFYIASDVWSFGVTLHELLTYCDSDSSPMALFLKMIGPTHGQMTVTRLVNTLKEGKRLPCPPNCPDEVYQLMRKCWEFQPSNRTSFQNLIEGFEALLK
How it was run: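 TR-FRET (LANCE) kinase assay using JAK1 at 187.5 ng/mL, ULight-JAK1 peptide at 300 nM and ATP at 150 μM, given as solution concentrations before mixing. Buffer was 50 mM HEPES pH 7.5 with 10 mM MgCl2 and 2 mM DTT, and the reaction ran 1 h at room temperature. Eu anti-phosphotyrosine signal at 665 nm was expressed relative to a no-enzyme well, taken as 100% inhibition.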

T1 sequence (P29597 whole entry): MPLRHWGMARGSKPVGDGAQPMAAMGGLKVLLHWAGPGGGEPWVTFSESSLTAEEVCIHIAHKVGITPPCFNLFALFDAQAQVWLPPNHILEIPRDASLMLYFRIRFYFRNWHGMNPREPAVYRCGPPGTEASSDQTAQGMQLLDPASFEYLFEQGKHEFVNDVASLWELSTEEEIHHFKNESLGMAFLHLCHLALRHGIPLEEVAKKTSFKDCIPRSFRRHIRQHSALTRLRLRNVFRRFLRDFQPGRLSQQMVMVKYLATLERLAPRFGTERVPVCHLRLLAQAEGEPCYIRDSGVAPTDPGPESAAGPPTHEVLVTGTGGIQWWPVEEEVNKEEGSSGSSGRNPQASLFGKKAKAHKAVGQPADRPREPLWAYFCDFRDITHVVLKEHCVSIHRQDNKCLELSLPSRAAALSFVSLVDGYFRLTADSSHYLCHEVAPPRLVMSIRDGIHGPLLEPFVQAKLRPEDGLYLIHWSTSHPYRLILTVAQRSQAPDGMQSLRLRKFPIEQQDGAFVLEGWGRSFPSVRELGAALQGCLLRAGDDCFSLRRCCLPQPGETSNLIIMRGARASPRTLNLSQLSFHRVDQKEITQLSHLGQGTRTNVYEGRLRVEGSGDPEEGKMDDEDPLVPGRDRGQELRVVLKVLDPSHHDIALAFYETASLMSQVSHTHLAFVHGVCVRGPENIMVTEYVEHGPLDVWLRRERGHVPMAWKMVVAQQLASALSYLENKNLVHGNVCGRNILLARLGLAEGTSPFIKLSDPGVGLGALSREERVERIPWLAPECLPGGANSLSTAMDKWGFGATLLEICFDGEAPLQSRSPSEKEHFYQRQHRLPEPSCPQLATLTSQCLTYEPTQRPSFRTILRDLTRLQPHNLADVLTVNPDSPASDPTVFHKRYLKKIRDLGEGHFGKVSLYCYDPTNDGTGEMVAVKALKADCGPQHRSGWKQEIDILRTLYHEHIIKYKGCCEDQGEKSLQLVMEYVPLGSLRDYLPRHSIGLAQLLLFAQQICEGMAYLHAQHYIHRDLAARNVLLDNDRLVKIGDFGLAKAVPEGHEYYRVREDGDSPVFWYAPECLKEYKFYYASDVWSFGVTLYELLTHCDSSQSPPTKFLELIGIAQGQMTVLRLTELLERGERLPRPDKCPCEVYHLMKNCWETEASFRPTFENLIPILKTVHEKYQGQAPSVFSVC

Structure (SMILES)	inhibition at 1 µM (Tyk2)	inhibition at 1 µM (JAK1)	inhibition at 10 µM (JAK1)	Inhibitory rate (%) Tyk2 1 μM (Tyk2)	Inhibitory rate (%) JAK1 10 μM (JAK1)
NS(=O)(=O)c1ccc(-c2nn(C3CCC(O)(c4ccccc4)CC3)c3cc[nH]c(=O)c23)cc1 (centres unmarked) [Example 174, 4-(1-(4-hydroxy-4-phenylcyclohexyl)-4-oxo-4,5-dihydro-1H-pyrazolo[4,3-c]pyridin-3-yl)benzenesulfonamide]	98%	99%			
NC(=O)Cn1cc(-c2nn(-c3c(F)cccc3F)c3c(Br)c[nH]c(=O)c23)cn1 [Example 175, 2-(4-(7-bromo-1-(2,6-difluorophenyl)-4-oxo-4,5-dihydro-1H-pyrazolo[4,3-c]pyridin-3-yl)-1H-pyrazol-1-yl)acetamide]	100%	86%			
O=c1[nH]cc(Br)c2c1c(-c1cn[nH]c1)nn2-c1c(F)cccc1F [Example 176, 7-bromo-1-(2,6-difluorophenyl)-3-(1H-pyrazol-4-yl)-1,5-dihydro-4H-pyrazolo[4,3-c]pyridin-4-one]	100%	95%			
O=c1[nH]cc(Cl)c2c1c(-c1cn[nH]c1)nn2-c1c(F)cccc1F [Example 177, 7-chloro-1-(2,6-difluorophenyl)-3-(1H-pyrazol-4-yl)-1,5-dihydro-4H-pyrazolo[4,3-c]pyridin-4-one]	100%	91%			
N#Cc1c[nH]c(=O)c2c(Nc3cccc(C(N)=O)c3)cn(C3CCCC3)c12 [Example 178, 3-((7-cyano-1-cyclopentyl-4-oxo-4,5-dihydro-1H-pyrrolo[3,2-c]pyridin-3-yl)amino)benzamide]	99%	93%			
O=c1[nH]ccc2c1c(-c1ccc(N3CCOCC3)cc1)nn2-c1c(F)cccc1F [Example 179, 1-(2,6-difluorophenyl)-3-(4-(morpholin-4-yl)phenyl)-1,5-dihydro-4H-pyrazolo[4,3-c]pyridin-4-one]	100%	94%			
NC(=O)Cc1ccc(-c2nn(C3CCCC3)c3cc[nH]c(=O)c23)cc1 [Example 182, 2-(4-(1-cyclopentyl-4-oxo-4,5-dihydro-1H-pyrazolo[4,3-c]pyridin-3-yl)phenyl)acetamide]	98%		98%		
NC(=O)c1cc(-c2nn([C@H]3CC[C@H](O)CC3)c3cc[nH]c(=O)c23)cs1 [Example 183, 4-(1-(trans-4-hydroxycyclohexyl)-4-oxo-4,5-dihydro-1H-pyrazolo[4,3-c]pyridin-3-yl)thiophene-2-carboxamide]	100%		100%		
NC(=O)c1cc(-c2nn([C@H]3CC[C@@H](O)CC3)c3cc[nH]c(=O)c23)cs1 [Example 184, 4-(1-(cis-4-hydroxycyclohexyl)-4-oxo-4,5-dihydro-1H-pyrazolo[4,3-c]pyridin-3-yl)thiophene-2-carboxamide]	99%		100%		
NC(=O)Cn1cc(-c2nn(-c3c(F)cccc3F)c3c(Cl)c[nH]c(=O)c23)cn1 [Example 190, 2-(4-(7-chloro-1-(2,6-difluorophenyl)-4-oxo-4,5-dihydro-1H-pyrazolo[4,3-c]pyridin-3-yl)-1H-pyrazol-1-yl)acetamide]	99%		81%		
O=C(c1cc(-c2nn(-c3c(F)cccc3F)c3c(Cl)c[nH]c(=O)c23)cs1)N1CCOCC1 [Example 192, 7-chloro-1-(2,6-difluorophenyl)-3-(5-(morpholin-4-ylcarbonyl)-3-thienyl)-1,5-dihydro-4H-pyrazolo[4,3-c]pyridin-4-one]	99%		94%		
O=C(NN1CCOCC1)c1cc(-c2nn(-c3c(F)cccc3F)c3c(Cl)c[nH]c(=O)c23)cs1 [Example 193, 4-(7-chloro-1-(2,6-difluorophenyl)-4-oxo-4,5-dihydro-1H-pyrazolo[4,3-c]pyridin-3-yl)-N-(morpholin-4-yl)thiophene-2-carboxamide]	100%		99%		
CC1(O)CCC(n2nc(-c3ccc(S(N)(=O)=O)cc3)c3c(=O)[nH]ccc32)CC1 (centres unmarked) [Example 196, 4-(1-(4-hydroxy-4-methylcyclohexyl)-4-oxo-4,5-dihydro-1H-pyrazolo[4,3-c]pyridin-3-yl)benzenesulfonamide]	100%		100%		
CC1(O)CCC(n2nc(-c3ccc(S(N)(=O)=O)cc3)c3c(=O)[nH]ccc32)CC1 (centres unmarked) [Example 197, 4-(1-(4-hydroxy-4-methylcyclohexyl)-4-oxo-4,5-dihydro-1H-pyrazolo[4,3-c]pyridin-3-yl)benzenesulfonamide]				98%	99%
CC1(O)CCC(n2nc(-c3csc(C(N)=O)c3)c3c(=O)[nH]ccc32)CC1 (centres unmarked) [Example 198, 4-(1-(4-hydroxy-4-methylcyclohexyl)-4-oxo-4,5-dihydro-1H-pyrazolo[4,3-c]pyridin-3-yl)thiophene-2-carboxamide]	100%		100%		
CC1(O)CCC(n2nc(-c3csc(C(N)=O)c3)c3c(=O)[nH]ccc32)CC1 (centres unmarked) [Example 199, 4-(1-(4-hydroxy-4-methylcyclohexyl)-4-oxo-4,5-dihydro-1H-pyrazolo[4,3-c]pyridin-3-yl)thiophene-2-carboxamide]				100%	99%
N#Cc1cc(-c2nn(-c3c(F)cccc3F)c3c(Cl)c[nH]c(=O)c23)ccc1N1CCOCC1 [Example 200, 5-(7-chloro-1-(2,6-difluorophenyl)-4-oxo-4,5-dihydro-1H-pyrazolo[4,3-c]pyridin-3-yl)-2-(morpholin-4-yl)benzonitrile]	98%		22%		
N#Cc1ccc(-c2nn(C3CCCC3)c3cc[nH]c(=O)c23)cc1 [Example 201, 4-(1-cyclopentyl-4-oxo-4,5-dihydro-1H-pyrazolo[4,3-c]pyridin-3-yl)benzonitrile]	97%		96%		
N#Cc1cccc(-c2nn(C3CCCC3)c3cc[nH]c(=O)c23)c1 [Example 202, 3-(1-cyclopentyl-4-oxo-4,5-dihydro-1H-pyrazolo[4,3-c]pyridin-3-yl)benzonitrile]	87%		80%		

Further lines, results first:

inhibition at 1 µM (Tyk2)	inhibition at 1 µM (JAK1)	inhibition at 10 µM (JAK1)	Inhibitory rate (%) Tyk2 1 μM (Tyk2)	Inhibitory rate (%) JAK1 10 μM (JAK1)	Structure (SMILES)
101%	92%				CNC(=O)c1ccc(-c2nn(-c3c(F)cccc3F)c3cc[nH]c(=O)c23)cc1 [Example 180, 4-(1-(2,6-difluorophenyl)-4-oxo-4,5-dihydro-1H-pyrazolo[4,3-c]pyridin-3-yl)-N-methylbenzamide]
99%		72%			O=c1[nH]cc(Cl)c2c1c(-c1ccc(CN3CCOCC3)cc1)nn2-c1c(F)cccc1F [Example 185, 7-chloro-1-(2,6-difluorophenyl)-3-(4-(morpholin-4-ylmethyl)phenyl)-1,5-dihydro-4H-pyrazolo[4,3-c]pyridin-4-one]
99%		82%			O=C1OCCN1Cc1ccc(-c2nn(-c3c(F)cccc3F)c3c(Cl)c[nH]c(=O)c23)cc1 [Example 186, 7-chloro-1-(2,6-difluorophenyl)-3-(4-((2-oxo-1,3-oxazolidin-3-yl)methyl)phenyl)-1,5-dihydro-4H-pyrazolo[4,3-c]pyridin-4-one]
98%		83%			CC(C)(C#N)c1ccc(-c2nn(-c3c(F)cccc3F)c3c(Cl)c[nH]c(=O)c23)cc1 [Example 187, 2-(4-(7-chloro-1-(2,6-difluorophenyl)-4-oxo-4,5-dihydro-1H-pyrazolo[4,3-c]pyridin-3-yl)phenyl)-2-methylpropanenitrile]
100%		84%			CC(C)(C(N)=O)c1ccc(-c2nn(-c3c(F)cccc3F)c3c(Cl)c[nH]c(=O)c23)cc1 [Example 188, 2-(4-(7-chloro-1-(2,6-difluorophenyl)-4-oxo-4,5-dihydro-1H-pyrazolo[4,3-c]pyridin-3-yl)phenyl)-2-methylpropanamide]
100%		92%			Cn1cc(-c2nn(-c3c(F)cccc3F)c3c(Cl)c[nH]c(=O)c23)cn1 [Example 189, 7-chloro-1-(2,6-difluorophenyl)-3-(1-methyl-1H-pyrazoI-4-yl)-1,5-dihydro-4H-pyrazolo[4,3-c]pyridin-4-one]
100%		98%			N#CCNC(=O)c1cc(-c2nn(-c3c(F)cccc3F)c3c(Cl)c[nH]c(=O)c23)cs1 [Example 191, 4-(7-chloro-1-(2,6-difluorophenyl)-4-oxo-4,5-dihydro-1H-pyrazolo[4,3-c]pyridin-3-yl)-N-(cyanomethyl)thiophene-2-carboxamide]
100%		67%			CNC(=O)c1ccc(-c2nn(-c3c(F)cccc3F)c3c(Cl)c[nH]c(=O)c23)cc1 [Example 194, 4-(7-chloro-1-(2,6-difluorophenyl)-4-oxo-4,5-dihydro-1H-pyrazolo[4,3-c]pyridin-3-yl)-N-methylbenzamide]
100%		79%			O=C1CCCN1c1ccc(-c2nn(-c3c(F)cccc3F)c3c(Cl)c[nH]c(=O)c23)cc1 [Example 195, 7-chloro-1-(2,6-difluorophenyl)-3-(4-(2-oxopyrrolidin-1-yl)phenyl)-1,5-dihydro-4H-pyrazolo[4,3-c]pyridin-4-one]
